Like-named read-outs stand apart in the source and are kept apart here.
Assays:
[1] = molecular target: T1, Human UII receptor, 6D9 human rhabdomyosarcoma cells (Homo sapiens, UniProt Q9UKP6); assay: Human UII Calcium Mobilization Assay; format: cell-based; conditions: average value, FLIPR TETRA, read-out: Human UII Ca^+ Mobilization Average IC50
T1 construct: 6D9: isolated by dilution subcloning of RMS13 cells, ATCC® Number: CRL-2061; host or cells: 6D9 human rhabdomyosarcoma cells (subclone of RMS13)
T1 sequence (Q9UKP6 1-389): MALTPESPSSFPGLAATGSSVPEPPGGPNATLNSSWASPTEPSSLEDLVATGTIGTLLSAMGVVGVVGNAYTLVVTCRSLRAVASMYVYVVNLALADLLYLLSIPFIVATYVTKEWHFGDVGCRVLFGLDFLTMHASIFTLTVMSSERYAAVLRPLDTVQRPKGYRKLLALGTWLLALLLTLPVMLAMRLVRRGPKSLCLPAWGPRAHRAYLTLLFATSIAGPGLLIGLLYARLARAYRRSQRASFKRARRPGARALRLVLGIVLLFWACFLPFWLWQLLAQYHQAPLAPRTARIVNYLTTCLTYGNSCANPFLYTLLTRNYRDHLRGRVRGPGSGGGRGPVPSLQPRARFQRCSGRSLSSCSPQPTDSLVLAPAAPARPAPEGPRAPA
Method in brief: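 6D9 rhabdomyosarcoma cells loaded 45 min at 37° C with calcium dye (1.25 mM probenecid, 0.01% FBS, HBSS/20 mM HEPES). Antagonist and U-II agonist added at room temperature; FLIPR fluorescence read over 4 min; EC50/IC50 fitted. DMSO ≤0.1% final.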

[2] = molecular target: T2, rat GPR14 (U-II receptor) (Rattus norvegicus, UniProt P49684); assay: Rat UII Calcium Mobilization FLIPR Assay; format: cell-based; conditions: average value for the compound tested; read-out: Rat UII FLIPR Average IC50
T2 construct: expressed in transfected cells
T2 sequence (P49684 1-386): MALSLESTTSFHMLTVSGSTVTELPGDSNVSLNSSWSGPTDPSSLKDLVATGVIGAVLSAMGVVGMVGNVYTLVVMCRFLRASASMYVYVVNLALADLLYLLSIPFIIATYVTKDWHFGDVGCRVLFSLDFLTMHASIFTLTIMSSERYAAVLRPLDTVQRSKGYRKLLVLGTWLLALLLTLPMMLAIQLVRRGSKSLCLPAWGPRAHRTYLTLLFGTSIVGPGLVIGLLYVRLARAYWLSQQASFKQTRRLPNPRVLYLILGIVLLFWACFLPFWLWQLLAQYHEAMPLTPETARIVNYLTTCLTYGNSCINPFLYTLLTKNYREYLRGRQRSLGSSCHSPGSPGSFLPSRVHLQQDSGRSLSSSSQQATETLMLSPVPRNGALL
Method in brief: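 CHO cells stably expressing rat U-II receptor, seeded 24 h before assay, were loaded with FLIPR calcium dye in HBSS/20 mM HEPES/0.1% BSA/2.5 mM probenecid, pH 7.4, for 1 h at 37° C. Calcium mobilization then read by FLIPR at 23° C.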

[3] = molecular target: T3, endogenous human UII receptor (Homo sapiens, UniProt Q9UKP6); assay: Human Radioligand Binding Assay ((^125I)-U-II binding to human skeletal muscle myoblasts)
T3 sequence (Q9UKP6 1-389): T1 sequence (Q9UKP6 1-389)

[4] = read-out: Human UII Average Binding Ki, average value, (^125I)-U-II binding to human skeletal muscle myoblasts (HSMM), 25° C., 3 h

SMILES | IC50 [1] [nM] | IC50 [2] [nM] | Ki [3] [nM] | Ki [3, 4] [nM]
COc1ccc([C@@H](CCCNC2=CCCN2)N2C(=O)c3cccc(N4CCN([C@H](C)c5ccccc5)CC4)c3C2=O)cc1OC [Cpd 165, (R)-2-[4-(4,5-dihydro-1H-pyrrol-2-ylamino)-1-(3,4-dimethoxy-phenyl)-butyl]-4-[4-(1R)-(1-phenyl-ethyl)-piperazin-1-yl]-isoindole-1,3-dione] | 1100 | 18 | 350 | 
COc1ccc([C@@H](CCCNS(=O)(=O)c2cccs2)N2C(=O)c3cccc(N4CCN([C@H](C)c5ccccc5)CC4)c3C2=O)cc1OC [Cpd 118, (R)-thiophene-2-sulfonic acid (4-(3,4-dimethoxy-phenyl)-4-{1,3-dioxo-4-[4-(1R)-(1-phenyl-ethyl)-piperazin-1-yl]-1,3-dihydro-isoindol-2-yl}-butyl)-amide] | 240 | 29 |  | 49
CCN1CCN(c2cccc3c2C(=O)N(C(CC2CCN(S(=O)(=O)c4cccs4)CC2)c2ccc(OC)c(OC)c2)C3=O)CC1 (stereo not drawn) [Cpd 234, 2-{1-(3,4-dimethoxy-phenyl)-2-[1-(thiophene-2-sulfonyl)-piperidin-4-yl]-ethyl}-4-(4-ethyl-piperazin-1-yl)-isoindole-1,3-dione] | 1700 | 51 | 280 | 
COc1ccc([C@@H](CCNS(=O)(=O)c2cn(C)c(C)n2)N2C(=O)c3cccc(N4CCN([C@H](C)c5ccccc5)CC4)c3C2=O)cc1OC [Cpd 219, (R)-1,2-dimethyl-1H-imidazole-4-sulfonic acid (3-(3,4-dimethoxy-phenyl)-3-{1,3-dioxo-4-[4-(1R)-(1-phenyl-ethyl)-piperazin-1-yl]-1,3-dihydro-isoindol-2-yl}-propyl)-amide] | 1000 | 22 | 44 | 
CCN1CCN(c2cccc3c2C(=O)N([C@H](CCCOCC(C)C)c2ccc(OC)c(OC)c2)C3=O)CC1 [Cpd 210, (R)-2-[1-(3,4-dimethoxy-phenyl)-4-isobutoxy-butyl]-4-(4-ethyl-piperazin-1-yl)-isoindole-1,3-dione] | > 10000 | 6200 | > 300 | 
CCOCCC[C@H](c1ccc(OC)c(OC)c1)N1C(=O)c2cccc(N3CCN(CC)CC3)c2C1=O [Cpd 207, (R)-2-[1-(3,4-dimethoxy-phenyl)-4-ethoxy-butyl]-4-(4-ethyl-piperazin-1-yl)-isoindole-1,3-dione] | 1400 | 200 | > 300 | 
COc1ccc([C@@H](CCCNC(=O)C(C)(C)C)N2C(=O)c3cccc(N4CCN([C@H](C)c5ccccc5)CC4)c3C2=O)cc1OC [Cpd 185, (R)-N-(4-(3,4-dimethoxy-phenyl)-4-{1,3-dioxo-4-[4-(1R)-(1-phenyl-ethyl)-piperazin-1-yl]-1,3-dihydro-isoindol-2-yl}-butyl)-2,2-dimethyl-propionamide] | 1000 | 9.8 | 23 | 
COc1ccc([C@@H](CCCNC(=O)c2cccnc2)N2C(=O)c3cccc(N4CCN([C@H](C)c5ccccc5)CC4)c3C2=O)cc1OC [Cpd 151, (R)-N-(4-(3,4-dimethoxy-phenyl)-4-{1,3-dioxo-4-[4-(1R)-(1-phenyl-ethyl)-piperazin-1-yl]-1,3-dihydro-isoindol-2-yl}-butyl)-nicotinamide] | 1000 | 14 | 74 | 
COc1ccc([C@@H](CCCNC(=O)c2c(C)n[nH]c2C)N2C(=O)c3cccc(N4CCN([C@H](C)c5ccccc5)CC4)c3C2=O)cc1OC [Cpd 215, (R)-3,5-dimethyl-1H-pyrazole-4-carboxylic acid (4-(3,4-dimethoxy-phenyl)-4-{1,3-dioxo-4-[4-(1R)-(1-phenyl-ethyl)-piperazin-1-yl]-1,3-dihydro-isoindol-2-yl}-butyl)-amide] | 37 | 11 |  | 87
COc1ccc([C@@H](CCCNC(=O)c2ccncc2)N2C(=O)c3cccc(N4CCN([C@H](C)c5ccccc5)CC4)c3C2=O)cc1OC [Cpd 154, (R)-N-(4-(3,4-dimethoxy-phenyl)-4-{1,3-dioxo-4-[4-(1R)-(1-phenyl-ethyl)-piperazin-1-yl]-1,3-dihydro-isoindol-2-yl}-butyl)-isonicotinamide] | 1200 | 13 | 84 | 

Now from value to compound, other results behind:

IC50 [1] [nM] | IC50 [2] [nM] | Ki [3] [nM] | SMILES | Ki [3, 4] [nM]
240 | 12 | 120 | COc1ccc([C@@H](CCNS(=O)(=O)c2c(C)n[nH]c2C)N2C(=O)c3cccc(N4CCN([C@H](C)c5ccccc5)CC4)c3C2=O)cc1OC [Cpd 223, (R)-3,5-dimethyl-1H-pyrazole-4-sulfonic acid (3-(3,4-dimethoxy-phenyl)-3-{1,3-dioxo-4-[4-(1R)-(1-phenyl-ethyl)-piperazin-1-yl]-1,3-dihydro-isoindol-2-yl}-propyl)-amide] | 
540 | 82 | 220 | CCN1CCN(c2cccc3c2C(=O)N([C@H](CCCNC(=O)OC(C)(C)C)c2ccc(OC)c(OC)c2)C3=O)CC1 [Cpd 197, (R)-{4-(3,4-dimethoxy-phenyl)-4-[4-(4-ethyl-piperazin-1-yl)-1,3-dioxo-1,3-dihydro-isoindol-2-yl]-butyl}-carbamic acid tert-butyl ester] | 
1000 | 14 | 32 | COc1ccc([C@@H](CCNC(=O)c2cnoc2C)N2C(=O)c3cccc(N4CCN([C@H](C)c5ccccc5)CC4)c3C2=O)cc1OC [Cpd 217, (R)-5-methyl-isoxazole-4-carboxylic acid (3-(3,4-dimethoxy-phenyl)-3-{1,3-dioxo-4-[4-(1R)-(1-phenyl-ethyl)-piperazin-1-yl]-1,3-dihydro-isoindol-2-yl}-propyl)-amide] | 
470 | 17 | 11 | COc1ccc(C(CCCNS(=O)(=O)c2cn(C)c(C)n2)N2C(=O)c3cccc(N4CCN([C@H](C)c5ccccc5)CC4)c3C2=O)cc1OC (stereo partly drawn) [Cpd 114, 1,2-dimethyl-1H-imidazole-4-sulfonic acid (4-(3,4-dimethoxy-phenyl)-4-{1,3-dioxo-4-[4-(1R)-(1-phenyl-ethyl)-piperazin-1-yl]-1,3-dihydro-isoindol-2-yl}-butyl)-amide] | 
400 | 12 | 140 | COc1ccc([C@@H](CCCNC(=O)c2ccnnc2)N2C(=O)c3cccc(N4CCN([C@H](C)c5ccccc5)CC4)c3C2=O)cc1OC [Cpd 160, (R)-pyridazine-4-carboxylic acid (4-(3,4-dimethoxy-phenyl)-4-{1,3-dioxo-4-[4-(1R)-(1-phenyl-ethyl)-piperazin-1-yl]-1,3-dihydro-isoindol-2-yl}-butyl)-amide] | 
660 | 17 | 69 | COc1ccc([C@@H](CCCNC(=O)c2cncn2C)N2C(=O)c3cccc(N4CCN([C@H](C)c5ccccc5)CC4)c3C2=O)cc1OC [Cpd 152, (R)-3-methyl-3H-imidazole-4-carboxylic acid (4-(3,4-dimethoxy-phenyl)-4-{1,3-dioxo-4-[4-(1R)-(1-phenyl-ethyl)-piperazin-1-yl]-1,3-dihydro-isoindol-2-yl}-butyl)-amide] | 
910 | 11 | 50 | COc1ccc([C@@H](CCCNC(=O)c2ccno2)N2C(=O)c3cccc(N4CCN([C@H](C)c5ccccc5)CC4)c3C2=O)cc1OC [Cpd 187, (R)-isoxazole-5-carboxylic acid (4-(3,4-dimethoxy-phenyl)-4-{1,3-dioxo-4-[4-(1R)-(1-phenyl-ethyl)-piperazin-1-yl]-1,3-dihydro-isoindol-2-yl}-butyl)-amide] | 
460 | 28 | 39 | COc1ccc(C(CCCNS(=O)(=O)N(C)C)N2C(=O)c3cccc(N4CCN([C@H](C)c5ccccc5)CC4)c3C2=O)cc1OC (stereo partly drawn) [Cpd 115, N′-[(4-(3,4-dimethoxy-phenyl)-4-{1,3-dioxo-4-[4-(1R)-(1-phenyl-ethyl)-piperazin-1-yl]-1,3-dihydro-isoindol-2-yl}-butyl)]-N,N-dimethyl-sulfamide] | 
